Measurements taken from PubChem BioAssay (NCI).
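Briefly, cells in 96-well plates were exposed to five compound concentrations for 48 h, and endpoints were estimated by linear interpolation. TGI is the concentration that stops growth completely.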

Experiments:
Assay in all cases: NCI tumour cell line growth inhibition, 48 h
SK-MEL-28 melanoma = system: SK-MEL-28 melanoma
SNB-75 CNS = system: SNB-75 CNS
HS 578T breast = system: HS 578T breast
SF-295 CNS = system: SF-295 CNS
KM12 colon = system: KM12 colon
UO-31 renal = system: UO-31 renal
MDA-MB-231 breast = system: MDA-MB-231 breast
NCI-H226 lung = system: NCI-H226 lung
RXF 393 renal = system: RXF 393 renal
U251 CNS = system: U251 CNS
SW-620 colon = system: SW-620 colon
NCI-H460 lung = system: NCI-H460 lung
COLO 205 colon = system: COLO 205 colon
NCI-H23 lung = system: NCI-H23 lung
T-47D breast = system: T-47D breast
OVCAR-4 ovarian = system: OVCAR-4 ovarian
PC-3 prostate = system: PC-3 prostate
CAKI-1 renal = system: CAKI-1 renal
LOX IMVI melanoma = system: LOX IMVI melanoma
NCI-H522 lung = system: NCI-H522 lung

Structure (SMILES)	TGI (SK-MEL-28 melanoma)	TGI (SNB-75 CNS)	TGI (HS 578T breast)	TGI (SF-295 CNS)	TGI (KM12 colon)	TGI (UO-31 renal)	TGI (MDA-MB-231 breast)	TGI (NCI-H226 lung)	TGI (RXF 393 renal)	TGI (U251 CNS)	TGI (SW-620 colon)	TGI (NCI-H460 lung)	TGI (COLO 205 colon)	TGI (NCI-H23 lung)	TGI (T-47D breast)	TGI (OVCAR-4 ovarian)	TGI (PC-3 prostate)	TGI (CAKI-1 renal)	TGI (LOX IMVI melanoma)	TGI (NCI-H522 lung)
Cc1cc(NC2=NCCO2)c2c(c1C)CCCC2	40.7 µM	67.5 µM	> 100 µM	31.8 µM	33.5 µM	30.7 µM	77.9 µM	12.4 µM	> 100 µM	63.1 µM	> 100 µM	63 µM	46.6 µM	> 100 µM	76.5 µM	> 100 µM				
O=C1c2ccccc2C2(c3ccc(Cl)cc3)NCc3ccccc3CN12 (stereo unspecified)	> 100 µM	> 100 µM	56.7 µM	35.7 µM	44.2 µM	78.1 µM	> 100 µM		29.6 µM	> 100 µM	> 100 µM	91.5 µM	28.3 µM	48.4 µM	49.9 µM	79.3 µM	51.3 µM	> 100 µM	29.7 µM	
Cc1nnc(N)nc1/C=C\c1cccs1	> 100 µM		> 100 µM	> 100 µM	31.5 µM	40.9 µM	> 100 µM	49.4 µM	40.8 µM	> 100 µM	> 100 µM	32.5 µM	> 100 µM	55.1 µM	> 100 µM	74.2 µM	56.4 µM	> 100 µM	> 100 µM	17.6 µM
CC[C@@]1(O)C(=O)OCc2c1cc1n(c2=O)Cc2c-1nc1ccccc1c2/C=N\NC(=O)C(N)CS (stereo partly specified)	> 100 µM	14 µM	> 100 µM	> 33.9 µM	> 100 µM	14.7 µM	> 100 µM	34.1 µM	10.2 µM	> 34.5 µM	> 100 µM	> 43.6 µM	> 100 µM	21.1 µM		> 100 µM	> 100 µM	> 91.3 µM	13.4 µM	25.9 µM
O=C1Nc2ccccc2NC1C1OC(c2ccccc2)=CC1=O (stereo unspecified)	> 100 µM	> 100 µM	> 100 µM	> 100 µM	> 100 µM	> 100 µM	> 100 µM	> 100 µM	> 100 µM	> 100 µM	> 100 µM	> 100 µM	> 100 µM	> 100 µM	> 100 µM	> 100 µM	> 100 µM	> 100 µM	> 100 µM	
Cc1ccc(S(=O)(=O)n2cc(-c3cnc(N)c(Br)n3)c3ccccc32)cc1	> 57 µM	> 22.5 µM	2.97 µM	> 100 µM	> 40.1 µM	> 100 µM	> 24 µM	> 100 µM	5.23 µM	> 77.5 µM	> 100 µM	> 100 µM	10 µM	5.94 µM	> 100 µM	> 100 µM	> 31.1 µM	> 100 µM	> 100 µM	
CC(C)(C)OC(=O)NC(CCCCNC(=O)OCc1ccccc1)C(=O)NC(CCCCNC(=O)OCc1ccccc1)C(=O)ON1C(=O)CCC1=O (stereo unspecified)	> 100 µM	> 100 µM	> 100 µM		> 100 µM	> 100 µM	> 100 µM	> 100 µM	> 100 µM	> 100 µM	> 100 µM		> 100 µM	> 100 µM	> 100 µM		> 100 µM			
Cc1ccc(S(=O)(=Nc2ccccc2)C(C(C)C)C(C)(C)Cl)cc1 (stereo unspecified)		> 50 µM	> 50 µM	> 50 µM	> 50 µM	> 50 µM	> 50 µM	45.9 µM	> 50 µM	> 50 µM	> 50 µM	45.4 µM	7.56 µM	46.5 µM	> 50 µM	> 50 µM	> 50 µM	> 50 µM	> 50 µM	> 50 µM
O=C(CCc1cc(O)cc(O)c1)NCCc1ccc(O)c(O)c1	> 100 µM	> 100 µM	> 100 µM	> 100 µM	> 100 µM	> 100 µM	> 100 µM	> 100 µM	> 100 µM	> 100 µM	> 100 µM	> 100 µM	> 100 µM	> 100 µM	> 100 µM		> 100 µM	> 100 µM	> 100 µM	> 100 µM
O=c1c2c([nH]c3cc4c(cc13)OCO4)-c1ccccc1CCC2	> 50 µM	> 50 µM	> 50 µM	> 50 µM	> 50 µM	> 50 µM	> 50 µM	> 50 µM	> 50 µM	> 50 µM	> 50 µM	> 50 µM	> 50 µM	> 50 µM		> 50 µM	> 50 µM	> 50 µM	> 50 µM	> 50 µM
O=C(NCCO)c1c(O)c2ccccc2[nH]c1=O	> 100 µM	> 100 µM	> 100 µM	> 100 µM	> 100 µM	> 100 µM	> 100 µM	> 100 µM	> 100 µM	> 100 µM	> 100 µM	> 100 µM	> 100 µM	> 100 µM		> 100 µM	> 100 µM	> 100 µM	> 100 µM	> 100 µM
CCC(=N\NC(N)=S)/C(C)=N/O	> 100 µM		> 100 µM	> 100 µM	> 100 µM	> 100 µM	> 100 µM	> 100 µM	> 100 µM	> 100 µM	> 100 µM	> 100 µM	> 100 µM	> 100 µM	> 100 µM	> 100 µM	> 100 µM	> 100 µM	> 100 µM	
CC(=O)NC1C(OCc2ccccc2)OC(CO)C(O)C1OCC(=O)NC(C)C(=O)NC(CCC(=O)NCCCCCC(=O)Nc1ccc2c(c1)CN1C(=O)c3ccccc3C1=N2)C(N)=O (stereo unspecified)	> 100 µM	> 100 µM	> 100 µM	> 100 µM	> 100 µM	> 100 µM	> 100 µM		> 100 µM	> 100 µM	> 100 µM	> 100 µM	> 100 µM	> 100 µM	> 100 µM	> 100 µM	> 100 µM	> 100 µM	> 100 µM	
